Measurements from the supplement of paper PMC7108870.

Legend:
HEK293sieSTAT3(wt) [1] = assay: drug sensitivity score (DSS), cytotoxicity CellTox Green (DSS (dimensionless)); higher = more cytotoxic; extreme values may be limits of the assay; conditions: 72 h; STAT3 variant: wild type
How it was run: (§1)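 HEK293 cells bearing a STAT3-dependent luciferase reporter and overexpressing wild-type or mutant STAT3 were incubated with compounds at 5 concentrations in 10-fold steps for 72 hours at 37°C and 5% CO2. CellTox Green fluorescence and then CellTiter-Glo luminescence were measured, and values were normalised to negative and positive control wells. In Breeze, a drug sensitivity score was computed from the dose-response curve area.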

HEK293sieSTAT3(Y640F) [2] = assay: as above; conditions: 72 h; STAT3 variant: Y640F (constitutively active)
How it was run: as §1

HEK293sieSTAT3(wt) [3] = assay: drug sensitivity score (DSS), viability CellTiter-Glo (DSS (dimensionless)); higher = more growth inhibition; extreme values may be limits of the assay; conditions: 72 h; STAT3 variant: wild type
How it was run: as §1

HEK293sieSTAT3(Y640F) [4] = assay: as above; conditions: 72 h; STAT3 variant: Y640F (constitutively active)
How it was run: as §1

| SMILES | drug sensitivity score (HEK293sieSTAT3(wt) [1]) | drug sensitivity score (HEK293sieSTAT3(Y640F) [2]) | drug sensitivity score (HEK293sieSTAT3(wt) [3]) | drug sensitivity score (HEK293sieSTAT3(Y640F) [4]) |
| --- | --- | --- | --- | --- |
| C[C@@H](C(=O)O)c1ccc(-c2ccccc2)c(F)c1 [Tarenflurbil] (top concentration tested 10000 nM) | 0 | 0 | 0.56 | 0.09 |
| FC(F)c1nc2ccccc2n1-c1nc(N2CCOCC2)nc(N2CCOCC2)n1 [ZSTK474] (top concentration tested 10000 nM) | 6.5 | 0 | 16.6 | 12.8 |
| N#CC(c1ccnc(OCc2ccc(CN3CCOCC3)cc2)n1)c1nc2ccccc2s1 (centres undefined) [Bentamapimod] (top concentration tested 10000 nM) | 0 | 0.96 | 8.85 | 5.3 |
| N#Cc1ccc2[nH]c(O)c(-c3ccc(CN4CCOCC4)cn3)c2c1 [AZD-1080] (top concentration tested 10000 nM) | 2.84 | 0 | 0.74 | 1.14 |
| COCC[n+]1c2c(n(Cc3cnccn3)c1C)C(=O)c1ccccc1C2=O [YM155] (top concentration tested 10000 nM) | 27.5 | 12.8 | 34.7 | 30.4 |
| O=C(NOCCO)c1ccc2cncn2c1Nc1ccc(I)cc1F [GDC-0623] (top concentration tested 2500 nM) | 0 | 0 | 0 | 0 |
| Cc1cccc(-c2[nH]c(CNc3ccccc3F)nc2-c2ccc3ncnn3c2)n1 [TEW-7197] (top concentration tested 2500 nM) | 0.27 | 0 | 1.04 | 2.53 |
| Cc1ccc(NC(=O)c2ccc(CN3CC[C@H](N(C)C)C3)c(C(F)(F)F)c2)cc1Nc1nccc(-c2cncnc2)n1 [Bafetinib] (top concentration tested 1000 nM) | 0 | 0 | 2.29 | 1.34 |
| C=C1C[C@@H]2[C@H](CC[C@]3(C)C(=O)CC[C@@H]23)[C@@]2(C)C=CC(=O)C=C12 [Exemestane] (top concentration tested 10000 nM) | 0 | 0 | 3.65 | 3.39 |
| S=P(N1CC1)(N1CC1)N1CC1 [Thio-TEPA] (top concentration tested 50000 nM) | 0 | 0 | 0.48 | 0.14 |
| CNC(=O)c1cccc(-c2ccc3c(N4CCOC[C@@H]4C)nc(N4CCOC[C@@H]4C)nc3n2)c1 [AZD2014] (top concentration tested 10000 nM) | 4.19 | 0 | 20.1 | 18 |
| COc1cccc2cc(-c3nc([C@H]4CC[C@H](C(=O)O)CC4)n4ncnc(N)c34)[nH]c12 [OSI-027] (top concentration tested 10000 nM) | 0 | 0 | 6.8 | 7.79 |
| OCCn1cc(-c2cnc3nnn(Cc4ccc5ncccc5c4)c3n2)cn1 (top concentration tested 2500 nM) | 0.12 | 0 | 0 | 1.78 |
| COc1ccc2c(OCc3nnc4ccc(-c5ccccc5)nn34)ccnc2c1 [AMG-208] (top concentration tested 2500 nM) | 0.89 | 0.89 | 0.59 | 1.58 |
| CC[C@@]1(O)C(=O)OCc2c1cc1n(c2=O)Cc2cc3ccccc3nc2-1 [Camptothecin] (top concentration tested 5000 nM) | 15.8 | 9.78 | 29.1 | 28.5 |
| COc1ccc(Cn2ccc3ccc(C(=O)NO)cc32)cc1 (top concentration tested 10000 nM) | 0 | 0 | 3.02 | 2.79 |
| CCC1(c2ccc(N)cc2)CCC(=O)NC1=O (centres undefined) [Aminoglutethimide] (top concentration tested 10000 nM) | 0 | 0 | 0.06 | 0.16 |
| Cc1cc(Nc2cc(CN3CCOCC3)c3nc(C)c(Cc4ccc(Cl)cc4F)n3n2)n[nH]1 [Gandotinib] (top concentration tested 10000 nM) | 6.79 | 2.66 | 8.78 | 5.34 |
| CN1CCc2c(c3ccccc3n2Cc2ccc(C(=O)NO)cc2)C1 [Tubastatin A] (top concentration tested 10000 nM) | 7.38 | 5.37 | 8.98 | 8.41 |
| Cn1cc(-c2ccc3nnc(C(F)(F)c4ccc5ncccc5c4)n3n2)cn1 (top concentration tested 10000 nM) | 0 | 0 | 3.09 | 0 |
| Cc1cc(C(=O)NOCCO)c(Nc2ccc(I)cc2F)n(C)c1=O [AZD-8330] (top concentration tested 10000 nM) | 0 | 0 | 0.01 | 7.16 |
| CCCCCCCCCCCCCCCCCCOP(=O)([O-])OC1CC[N+](C)(C)CC1 [Perifosine] (top concentration tested 2500 nM) | 0.08 | 0 | 2.19 | 5.21 |
| CNc1nc(Nc2cn(C(C)(C)C#N)nc2C)ncc1C(F)(F)F [GNE-0877] (top concentration tested 1000 nM) | 0 | 0 | 0.56 | 3.78 |

| SMILES | drug sensitivity score (HEK293sieSTAT3(wt) [1]) | drug sensitivity score (HEK293sieSTAT3(Y640F) [2]) | drug sensitivity score (HEK293sieSTAT3(wt) [3]) | drug sensitivity score (HEK293sieSTAT3(Y640F) [4]) |
| --- | --- | --- | --- | --- |
| CCn1c(=O)c(-c2ccc(Cl)cc2Cl)cc2cnc(Nc3ccc(N4CCNCC4)c(F)c3)nc21 [FRAX486] (top concentration tested 5000 nM) | 6.75 | 0 | 9.57 | 6.38 |
| O=C(O)CC1CC(c2ccccc2)=NO1 (centres undefined) [VGX-1027] (top concentration tested 10000 nM) | 0 | 0 | 1.07 | 3.98 |
| Nc1nc(NC2CC2)cc(-c2cccc(Cl)c2Cl)n1 [TH588] (top concentration tested 25000 nM) | 5.04 | 2.04 | 6.38 | 3.43 |
| COc1cccc2c1C(=O)c1c(O)c3c(c(O)c1C2=O)C[C@@](O)(C(=O)CO)C[C@@H]3O[C@H]1C[C@H](N)[C@H](O)[C@H](C)O1 [Doxorubicin] (top concentration tested 1000 nM) | 0 | 0 | 19.3 | 18.6 |
| Oc1ncnc2[nH]ncc12 [Allopurinol] (top concentration tested 10000 nM) | 0 | 0 | 0.7 | 3.38 |
| CO[C@H]1C(=O)[C@]2(C)[C@@H](OC)C[C@H]3OC[C@@]3(OC(C)=O)[C@H]2[C@H](OC(=O)c2ccccc2)[C@]2(O)C[C@H](OC(=O)[C@H](O)[C@@H](NC(=O)OC(C)(C)C)c3ccccc3)C(C)=C1C2(C)C [Cabazitaxel] (top concentration tested 1000 nM) | 16.3 | 4.14 | 28.6 | 26.2 |
| O=C(NC[C@H](O)CO)c1ccncc1Nc1ccc(I)cc1F [Pimasertib] (top concentration tested 10000 nM) | 0 | 0 | 0 | 0.57 |
| Cc1cccc(CC(=O)N2CCc3c2ccc(-c2cn(C)c4ncnc(N)c24)c3F)n1 (top concentration tested 2500 nM) | 0.89 | 0 | 0 | 0 |
| CCc1cnn2c(NCc3ccc[n+]([O-])c3)cc(N3CCCC[C@H]3CCO)nc12 [Dinaciclib] (top concentration tested 1000 nM) | 24.6 | 7.03 | 28.8 | 27.9 |
| CC1(C)NC(=O)N(c2ccc([N+](=O)[O-])c(C(F)(F)F)c2)C1=O [Nilutamide] (top concentration tested 10000 nM) | 0.74 | 0 | 0.69 | 2.68 |
| CCN(CC)Cc1ccc2cc(COC(=O)Nc3ccc(C(=O)NO)cc3)ccc2c1 [Givinostat] (top concentration tested 1000 nM) | 6.08 | 4.23 | 11.6 | 10.8 |
| N[C@@H](Cc1ccc(N(CCCl)CCCl)cc1)C(=O)O [Melphalan] (top concentration tested 12500 nM) | 0 | 0 | 0 | 1.69 |
| CN1CCN(c2nc(C3=C(c4c[nH]c5ccccc45)C(=O)NC3=O)c3ccccc3n2)CC1 [Sotrastaurin] (top concentration tested 10000 nM) | 0.69 | 3 | 5.78 | 3.63 |
| CC(C)[C@H](C(=O)Nc1ccc(C(=O)NO)cc1)c1ccccc1 [AR-42] (top concentration tested 10000 nM) | 8.7 | 5.41 | 16.5 | 14.4 |
| CC1=C(/C=C/C(C)=C/C=C/C(C)=C/C(=O)O)C(C)(C)CCC1 [Tretinoin] (top concentration tested 10000 nM) | 0 | 0 | 0 | 0 |
| Cc1sc2c(c1C)C(c1ccc(Cl)cc1)=N[C@@H](CC(=O)Nc1ccc(O)cc1)c1nnc(C)n1-2 [OTX015] (top concentration tested 10000 nM) | 10.9 | 3.12 | 10.5 | 12.2 |
| CN1CCN(C2CCN(C(=O)Nc3cc(Oc4ccc(NC(=O)C5(C(=O)Nc6ccc(F)cc6)CC5)c(F)c4)ccn3)CC2)CC1 [Golvatinib] (top concentration tested 2500 nM) | 0.24 | 0 | 1.49 | 2.77 |
| COc1ccc(C[C@H](NC(=O)[C@H](C)NC(=O)CN2CCOCC2)C(=O)N[C@@H](Cc2ccccc2)C(=O)C2(C)CO2)cc1 (stereo in doubt) [ONX-0914] (top concentration tested 10000 nM) | 19.9 | 18.6 | 21.7 | 19.9 |
| Cn1cc(-c2cnn3c(N)c(Br)c([C@@H]4CCCNC4)nc23)cn1 [MK-8776] (top concentration tested 2500 nM) | 3.43 | 1.03 | 6.83 | 5.89 |
| COc1cc2c(Nc3ccc(Cl)c(Cl)c3F)ncnc2cc1OC[C@@H]1C[C@@H]2CN(C)C[C@@H]2C1 [XL-647] (top concentration tested 1000 nM) | 0 | 0 | 0.88 | 1.72 |
| Cc1nc(-c2cn3c(n2)-c2ccc(-c4cnn(C(C)(C)C(N)=O)c4)cc2OCC3)n(C(C)C)n1 [Taselisib] (top concentration tested 1000 nM) | 0.54 | 0 | 5.32 | 4.03 |
| C=C(c1ccc(C(=O)O)cc1)c1cc2c(cc1C)C(C)(C)CCC2(C)C [Bexarotene] (top concentration tested 10000 nM) | 0 | 0 | 3.75 | 2 |
| CCn1c(C(=O)N(C2CC2)C2CC2)cc2c3c(ncn3C)c(Nc3cc(C)n(C)n3)nc21 (top concentration tested 10000 nM) | 0 | 0 | 0.76 | 0.09 |
